Assay results: patent US20260199274A1 (priority 2022, published 2026)

Key:
[1] = test system: influenza A/pandemic/2009 H1N1 (H1N1p) strain; format: cell-based, influenza A virus
[2] = test system: A/Puerto Rico/8/1934 H1N1 (PR8) virus; format: cell-based, influenza A virus
[3] = test system: Delta strain of SARS-CoV-2; format: cell-based
[4] = test system: NF-kB activity / TNFα secretion; test: Murine model of acute lung injury induced by lipopolysaccharide; format: in vivo, mice; details: 10 μg LPS
Protocol: NF-kB transgenic Balb/c (FIG. 11a, 11b) or C57Bl/6 (FIG. 11c) mice were instilled with 10 μg of lipopolysaccharides (LPS) and treated 15 minutes post-stimulation with 0.6 mg of cis-aconitate (CA) intranasally. 24 h post-instillation, mice were anesthetized. In the group of NF-kB transgenic Balb/c animals, luciferine was intranasally instilled (0.75 mg·kg^−1) and bioluminescence was measured using the IVIS imaging system (FIG. 11a, 11b). In the group of C57Bl/6 mice, BALs fluids were collected to determine TNFα levels (FIG. 11c).). Bioluminescence was then measured using the IVIS system. […] Statistical analysis was performed using the Mann-Whitney test.
Then, we further examined the anti-inflammatory effect of cis-aconitate administered intranasally in a valuable murine model of acute lung injury induced by lipopolysaccharide ([63]), a cell wall component characteristic of Gram-negative bacteria.

[5] = test system: IL-6 production; test: hIL-6 in IAV-infected human precision-cut lung slices (PCLS); format: cell-based; details: 3.4 mM CA 2 hpi, 48 hpi
[6] = test system: BEAS-2B cells; test: BEAS-2B tolerance: Ki67, mitotracker, DHR 123 and Live Dead staining; format: cell-based, human
Protocol: (FIG. 8a) Human bronchial epithelial BEAS-2B cells were treated with PBS or with 3.4 mM of cis-aconitate (CA), itaconate (Ita), oxaloacetate (Oxa), isocitrate (IsoC), citrate (Cit), fumarate (Fum), pyruvate (Pyr) or glucose (Glc) for 16 h and cytotoxicity was assessed by MTS assay. BEAS-2B cells were treated (CA+) or not (CA-) with 3.4 mM of CA for 6 or 24 h (FIG. 8b, 8c, 8d) or with 0, 1.2, 2.3 or 3.4 mM of CA for 20 h (FIG. 8e). Cell proliferation (FIG. 8b), mitochondrial labeling (FIG. 8c), ROS production (FIG. 8d) and cell viability (FIG. 8e) were analyzed by Ki67, mitotracker, DHR 123 and Live Dead staining respectively. (FIG. 8f) Human primary bronchial epithelial cells (PBEC) were treated with 0.6, 3.4 or 5.7 mM CA for 16 h and cytotoxicity was assessed by a MTS test. Data are represented as mean±/−SEM of 4 (FIG. 8b-f) or 5 (FIG. 8a) independent experiments. Statistical analysis was performed using the Kruskal-Wallis test with Dunn's multiple comparison test (FIGS. 8a, 8e and 8f) or Friedman test with Dunn's multiple comparison test (FIG. 8b-8d).
Cell proliferation and cytotoxicity assays. Cells in 96-well plates were washed twice with PBS and incubated for 1 h at 37° C. with 100 μL of MTS reagent diluted 1/5 for the cell proliferation test. Optical density was measured at 490 nm. For the cytotoxicity assay, cells were stained for 15 min at 4° C. with Live/Dead or with anti-Ki67, mitotracker and […] flow cytometry analysis.

[7] = 0.6 mg intranasally every second day for 15 days
[8] = test system: IL-6 production; test: IL-6 ELISA in BEAS-2B cells stimulated with inflammatory agonists (PIC, PMA, TNFα); format: cell-based, human; details: increasing doses of CA 16 h
[9] = test system: IL-6 production; test: hIL-6 ELISA in supernatants of IAV-infected BEAS-2B cells; format: cell-based, human
[10] = test system: influenza B Yamagata (B/Paris/234/2013) virus; test: Plaque-Forming Units assay, BEAS-2B cells infected with IBV; format: cell-based; details: 3.4 mM for 16 h from 4 h post-infection
[11] = test system: Wuhan strain of SARS-CoV-2; test: IL-6 ELISA in Vero epithelial cells infected with SARS-CoV-2 Wuhan strain; format: cell-based; details: MOI=1, 1 mg/ml cis-aconitate for 16 hours from 4 h post-infection
[12] = test system: ERK, AKT and NF-κB signaling pathways; test: Western blotting of phosphorylated ERK1/2, AKT and p65 in BEAS-2B cells; format: cell-based, human
[13] = test system: IAV-triggered cell death; format: cell-based, human
[14] = test system: IL-6 production; test: IL-6 ELISA in PBEC (IAV, poly(I:C) or PMA); format: cell-based, human
[15] = test system: CCL2/MCP-1, CCL5/RANTES, CXCL1/GROa, CXCL10/IP-10, IL-6 and CXCL8/IL-8; test: Protein-array of immune mediators in supernatants of IAV-infected BEAS-2B cells; format: cell-based, human; details: 3.4 mM
[16] = target: viral polymerase (Influenza A virus, UniProt P03427+P03430+P15659); format: cell-based

**Q.** For `O=C(O)/C=C(/CC(=O)O)C(=O)O` [cis-aconitate], which “viral particles production (PFU)” value [1] is on record?
**A.** at least one log decrease

**Q.** What about the “viral particles production (PFU)” value [2] of the same compound?
**A.** at least one log decrease

**Q.** What about the IL-6 production [3] of the same compound?
**A.** significant reduction

**Q.** And the “TNFα secretion in the BAL fluids” value ([4]; C57Bl/6 mice, 0.6 mg CA intranasally, 24 h)?
**A.** significantly decreased

**Q.** What about the “LPS-induced inflammation (NF-kB bioluminescence)” value ([4]; NF-kB transgenic Balb/c mice, 0.6 mg CA intranasally 15 minutes post-stimulation, 24 hours) of the same compound?
**A.** markedly reduced

**Q.** What about the “reduction in IL-6 production” value [5] of the same compound?
**A.** twofold

**Q.** And the “cell viability (Live Dead)” value ([6]; BEAS-2B, 0, 1.2, 2.3 or 3.4 mM, 20 h)?
**A.** did not impact

**Q.** What about the “ROS production (DHR 123)” value ([6]; BEAS-2B, 3.4 mM, 6 or 24 h) of the same compound?
**A.** did not impact

**Q.** What about the “cell proliferation (Ki67)” value ([6]; BEAS-2B, 3.4 mM, 6 or 24 h) of the same compound?
**A.** did not impact

**Q.** And the “mitochondria accumulation (mitotracker)” value ([6]; BEAS-2B, 3.4 mM, 6 or 24 h)?
**A.** did not impact

**Q.** And the adverse effects [7]?
**A.** no adverse effects

**Q.** What about the “overall fecal microbial composition (Aitchison distance)” value ([7]; day 0, 7, 14) of the same compound?
**A.** no differences

**Q.** And the “IL-6 production, dose-dependent” value ([8]; BEAS-2B stimulated with 20 ng/ml TNFα)?
**A.** trend

**Q.** What about the “IL-6 production, dose-dependent” value ([8]; BEAS-2B stimulated with 50 nM PMA) of the same compound?
**A.** significant decrease

**Q.** What about the “IL-6 production, dose-dependent” value ([8]; BEAS-2B stimulated with 2 μg/mL Poly (I:C)) of the same compound?
**A.** significant decrease

**Q.** What about the “IL-6 production, dose-dependent” value ([9]; BEAS-2B stimulated with IAV MOI=1, increasing doses of CA 16 h) of the same compound?
**A.** significant decrease

**Q.** And the “IL-6 production of IAV-infected epithelial cells” value ([9]; BEAS-2B, IAV MOI=1, 3.4 mM for 16 h)?
**A.** reduced

**Q.** And the “viral particles production (PFU)” value [10]?
**A.** at least one log decrease

**Q.** And the IL-6 production [11]?
**A.** significant reduction

**Q.** What about the “ERK, AKT and NF-κB signaling pathways” value [12] of the same compound?
**A.** reductions

**Q.** And the “accumulation of phosphorylated ERK1/2, Akt and p65” value [12]?
**A.** inhibited

**Q.** What about the “reduction in SYTOX labeling (dead cells)” value [13] of the same compound?
**A.** approximately 70%

**Q.** What about the “reduction of IAV-induced hIL-6 production” value [14] of the same compound?
**A.** up to 80%

**Q.** And the “pro-inflammatory cytokine (IL-6) expression induced by PMA” value ([14]; PBEC, PMA 4 h, then CA 20 h)?
**A.** dose-dependent decrease

**Q.** And the “pro-inflammatory cytokine (IL-6) expression induced by PIC” value ([14]; PBEC, poly(I:C) 4 h, then CA 20 h)?
**A.** dose-dependent decrease

**Q.** And the “IAV-induced expression of CCL2/MCP-1, CCL5/RANTES, CXCL1/GROa, CXCL10/IP-10, IL-6 and CXCL8/IL-8” value [15]?
**A.** inhibited

**Q.** What about the “luciferase activity versus concentration” value [16] of the same compound?
**A.** dose-dependent decrease

**Q.** What about the “reduction of luciferase activity (viral polymerase activity)” value [16] of the same compound?
**A.** ~ 75%
